Data set [1] can be described thus: Evaluation of a conversion rate to 2-acetylnaphtho[2,3-b]furan-4,9-dione in human plasma. It is filed as in vitro ADME. The conditions noted are these: Human plasma, 1 umol/L, 37° C., incubation time 120 min. The procedure: (§1) For test compounds, the decrease rate of the test compounds and the conversion rate thereof to 2-acetylnaphtho[2,3-b]furan-4,9-dione in human plasma, CD1 mouse plasma, and pH 7.4 phosphate buffer solution were measured.
(§2) Test compounds were incubated at the concentration of 1 umol/L in human plasma (cat. no. 12250210, COSMO BIO), CD1 mouse plasma (cat. no. AP3054, KAC), and phosphate buffer solution at 37° C., and removed at predetermined times (0, 5, 10, 30, 60, and 120 minutes). After protein-removing treatment was performed, they are analyzed with LC-MS. It should be noted that the protein-removing treatment used acetonitrile containing: 10% volume of 1 mol/L hydrochloric acid; 1% volume of 46% citric acid; and phenytoin as an internal standard.
(§3) The measurement condition of LC-MS is as described below. LC-MS condition column: Kinetex 2.6 u PFP 100 A 50×2.1 mm Column temperature: 40° C.
(§4) Mobile phase: A: 0.1% formic acid-containing water
(§5) • B: 0.1% formic acid-containing acetonitrile A/B(min): 95/5(0)→5/95(3)→5/95(4)→95/5(4.1)→95/5(6) Flow rate: 0.4 mL/min Detection: ESI (positive mode) Injection volume: 10 uL
In the same way as Example 6, the incubation time was set as 120 minutes later, and the conversion rate of each of various test compounds to 2-acetylnaphtho[2,3-b]furan-4,9-dione in human plasma, CD1 mouse plasma, and pH 7.4 phosphate buffer solution was measured.

Data set [2] can be described thus: Evaluation of a conversion rate to 2-acetylnaphtho[2,3-b]furan-4,9-dione in pH 7.4 phosphate buffer solution. In kind it is physicochemical. The conditions noted are these: Phosphate buffer solution (pH 7.4), 1 umol/L, 37° C., incubation time 120 min. The procedure: as §1, §2, §3, §4, §5
Measurement values are calculated from the peak area ratio in LC-MS between an internal standard material, phenytoin and an active form, 2-acetylnaphtho[2,3-b]furan-4,9-dione, and are expressed in %.
In the same way as Example 6, the incubation time was set as 120 minutes later, and the conversion rate of each of various test compounds to 2-acetylnaphtho[2,3-b]furan-4,9-dione in human plasma, CD1 mouse plasma, and pH 7.4 phosphate buffer solution was measured. A series of the present compounds were confirmed to be converted to 2-acetylnaphtho[2,3-b]furan-4,9-dione in pH 7.4 phosphate buffer solution in addition to human plasma and CD1 mouse plasma. Therefore, a series of the test compounds of the present invention were confirmed to be converted to the activated form via a route other than an enzymatic conversion.

The nature of data set [3]: Solubility test. The conditions noted are these: 50 mmol/L glycine buffer solution (pH 2.0), room temperature, 24 hours shaking.
Description: A water-soluble prodrug was added into 50 mmol/L glycine buffer solution (pH 2.0). After shaking at room temperature for 24 hours, the mixture was filtered through a membrane filter, and then the filtrate was measured with HPLC.
The measurement condition of HPLC is as described below. HPLC condition column: Acquity UPLC BEH C18, 1.7 um, 50×2.1 mm
Mobile phase: A: 0.1% trifluoroacetic acid-containing water

The structures appear in SMILES notation. Where a name gives a salt, the structure may show the parent alone. Where only a bound is given, the exact number is not on record here.

Consider `CC(=O)c1cc2c(OC(=O)NCCNCCS(=O)(=O)N3CCCCC3)c3ccccc3c(OC(=O)NCCNCCS(=O)(=O)N3CCCCC3)c2o1.Cl.Cl` [Example 56], for which the “% Measurement value (conversion rate to 2-acetylnaphtho[2,3-b]furan-4,9-dione)” value (“% Measurement value” for short) in data set [1] was 63%; in data set [2], 30%. Moreover, the “Solubility in pH 2.0 buffer solution” value in data set [3] is listed as 3.3 mg/mL.

Turning to `CC(=O)c1cc2c(O)c3ccccc3c(OC(=O)NCCCNCCOC(N)=O)c2o1.Cl` [Example 88], the “% Measurement value” value in data set [1] is 27%; in data set [2], 26%. In addition, the “Solubility in pH 2.0 buffer solution” value in data set [3] was found to be 3.2 mg/mL.

`CC(=O)c1cc2c(OC(=O)NCCNCCF)c3ccccc3c(OC(=O)NCCNCCF)c2o1.Cl.Cl` [Example 43]: the “% Measurement value” value in data set [1] amounted to 81%; in data set [2], 63%. Moreover, the “Solubility in pH 2.0 buffer solution” value in data set [3] is listed as more than 5.0 mg/mL.

Consider `COC(=O)OCCNCCCNC(=O)Oc1c2ccccc2c(OC(=O)NCCCNCCOC(=O)OC)c2oc(C(C)=O)cc12.Cl.Cl` [Example 70], for which the “% Measurement value” value in data set [1] is 66%; in data set [2], 48%. The “Solubility in pH 2.0 buffer solution” value in data set [3] is reported as more than 5.0 mg/mL.

For the compound `COC(=O)OCCNCCNC(=O)Oc1c2ccccc2c(OC(=O)NCCNCCOC(=O)OC)c2oc(C(C)=O)cc12.Cl.Cl` [Example 69], the “% Measurement value” value in data set [1] came to 90%; in data set [2], 71%. The “Solubility in pH 2.0 buffer solution” value in data set [3] is listed as more than 5.0 mg/mL.

In the case of `CC(=O)c1cc2c(OC(=O)NCCNC(C)C(=O)O)c3ccccc3c(OC(=O)NCCNC(C)C(=O)O)c2o1.Cl.Cl` (stereo not shown) [Example 50], the “% Measurement value” value in data set [1] is on record as 96%; in data set [2] it was 61%. For the same compound, in data set [3], the “Solubility in pH 2.0 buffer solution” value is listed as 0.1 mg/mL.

As to `CC(=O)c1cc2c(O)c3ccccc3c(OC(=O)NCCCNCC(=O)N3CCC3)c2o1.Cl` [Example 86], the “% Measurement value” value is 55% in data set [1] and 38% in data set [2]. The “Solubility in pH 2.0 buffer solution” value in data set [3] is more than 5.0 mg/mL.

As to `CC(=O)c1cc2c(OC(=O)NCCNCCOC(N)=O)c3ccccc3c(OC(=O)NCCNCCOC(N)=O)c2o1.Cl.Cl` [Example 65], the “% Measurement value” value in data set [1] worked out at 81%; in data set [2] it was 73%. Further, the “Solubility in pH 2.0 buffer solution” value in data set [3] is more than 5.0 mg/mL.

For `COC(=O)NCCNCCNC(=O)Oc1c2ccccc2c(OC(=O)NCCNCCNC(=O)OC)c2oc(C(C)=O)cc12.Cl.Cl` [Example 67], the “% Measurement value” value is listed as 78% in data set [1] and 60% in data set [2]. In data set [3], the “Solubility in pH 2.0 buffer solution” value was more than 5.0 mg/mL.

As for `COC(=O)NCCNCCNC(=O)Oc1c2ccccc2c(O)c2cc(C(C)=O)oc12.Cl` [Example 89], the “% Measurement value” value stood at 63% in data set [1] and 58% in data set [2]. The “Solubility in pH 2.0 buffer solution” value in data set [3] is reported as more than 5.0 mg/mL.

Turning to `CC(=O)c1cc2c(OC(=O)NCCCNCCS(C)(=O)=O)c3ccccc3c(OC(=O)NCCCNCCS(C)(=O)=O)c2o1.Cl.Cl` [Example 60], the figures for the “% Measurement value” value in data set [1] and in data set [2] were 68% and 39%, respectively. In data set [3], the “Solubility in pH 2.0 buffer solution” value is reported as more than 5.0 mg/mL.

In the case of `CC(=O)c1cc2c(OC(=O)NC3CCNC3)c3ccccc3c(OC(=O)NC3CCNC3)c2o1.Cl.Cl` (stereo not shown) [Example 48], the “% Measurement value” value is reported as 71% in data set [1] and 59% in data set [2]. Moreover, the “Solubility in pH 2.0 buffer solution” value in data set [3] is on record as more than 5.0 mg/mL.

`COC(=O)OCCNCCNC(=O)Oc1c2ccccc2c(O)c2cc(C(C)=O)oc12.Cl` [Example 91]: the “% Measurement value” value is given as 61% in data set [1] and 45% in data set [2]. Moreover, the “Solubility in pH 2.0 buffer solution” value in data set [3] amounted to 3.6 mg/mL.

For the compound `CC(=O)c1cc2c(OC(=O)NCCNCCCC(=O)O)c3ccccc3c(OC(=O)NCCNCCCC(=O)O)c2o1.Cl.Cl` [Example 42], the results for the “% Measurement value” value in data set [1] and in data set [2] were 69% and 54%, respectively. Moreover, the “Solubility in pH 2.0 buffer solution” value in data set [3] is more than 5.0 mg/mL.

Turning to `CC(=O)c1cc2c(OC(=O)NCCNCCS(C)(=O)=O)c3ccccc3c(OC(=O)NCCNCCS(C)(=O)=O)c2o1.Cl.Cl` [Example 61], the “% Measurement value” value in data set [1] was 87%; in data set [2] it was 55%. Also, the “Solubility in pH 2.0 buffer solution” value in data set [3] came out at 2.5 mg/mL.

As to `CC(=O)c1cc2c(O)c3ccccc3c(OC(=O)NCCCNCC(=O)NCC(=O)O)c2o1.Cl` [Example 84], the “% Measurement value” value is 42% in data set [1] and 31% in data set [2]. Also, the “Solubility in pH 2.0 buffer solution” value in data set [3] is more than 5.0 mg/mL.

Take `COC(=O)[C@@H](N)CCNC(=O)Oc1c2ccccc2c(OC(=O)NCC[C@H](N)C(=O)OC)c2oc(C(C)=O)cc12` [Example 106, Dimethyl 4,4′-((((2-acetylnaphtho[2,3-b]furan-4,9-diyl)bis(oxy))bis(carbonyl))bis(azanediyl))(2S,2′S)-bis(2-aminobutanoate)dibenzenesulfonate salt]: the “% Measurement value” value in data set [2] is 55%. In data set [3], the “Solubility in pH 2.0 buffer solution” value is more than 5.0 mg/mL.

As to `CC(=O)c1cc2c(OC(=O)NC3CCCNC3)c3ccccc3c(OC(=O)NC3CCCNC3)c2o1.Cl.Cl` (stereo not shown) [Example 49], the “% Measurement value” value worked out at 77% in data set [1] and 58% in data set [2]. For the same compound, the “Solubility in pH 2.0 buffer solution” value in data set [3] is on record as more than 5.0 mg/mL.

As to `CC(=O)c1cc2c(O)c3ccccc3c(OC(=O)NCCCNCCS(C)(=O)=O)c2o1.Cl` [Example 82], the “% Measurement value” value is listed as 74% in data set [1] and 25% in data set [2]. In data set [3], the “Solubility in pH 2.0 buffer solution” value is reported as 0.1 mg/mL.

For the compound `CC(=O)c1cc2c(O)c3ccccc3c(OC(=O)NCCNCC(=O)N3CCC3)c2o1.Cl` [Example 85], the “% Measurement value” value in data set [1] is listed as 38%; in data set [2], 37%. In data set [3], the “Solubility in pH 2.0 buffer solution” value was found to be 4.1 mg/mL.

In the case of `CC(=O)c1cc2c(OC(=O)NCCCNCC(=O)N3CCC3)c3ccccc3c(OC(=O)NCCCNCC(=O)N3CCC3)c2o1.Cl.Cl` [Example 63], the entries for the “% Measurement value” value in data set [1] and in data set [2] were 59% and 51%, respectively. Further, the “Solubility in pH 2.0 buffer solution” value in data set [3] was more than 5.0 mg/mL.

As for `CC(=O)c1cc2c(OC(=O)NCCNCC(F)(F)F)c3ccccc3c(OC(=O)NCCNCC(F)(F)F)c2o1.Cl.Cl` [Example 45], the entries for the “% Measurement value” value in data set [1] and in data set [2] were 84% and 48%, respectively. Further, in data set [3], the “Solubility in pH 2.0 buffer solution” value is given as more than 5.0 mg/mL.

Consider `COC(=O)[C@@H](N)CCNC(=O)Oc1c2ccccc2c(OC(=O)NCC[C@H](N)C(=O)OC)c2oc(C(C)=O)cc12` [Example 108, Dimethyl 4,4′-((((2-acetylnaphtho[2,3-b]furan-4,9-diyl)bis(oxy))bis(carbonyl))bis(azanediyl))(2S,2′S)-bis(2-aminobutanoate)ditrifluoroacetate salt], for which the “% Measurement value” value in data set [2] is given as 44%. Further, the “Solubility in pH 2.0 buffer solution” value in data set [3] is on record as more than 5.0 mg/mL.

Take `CC(=O)c1cc2c(OC(=O)NCCNCCS(=O)(=O)C(C)C)c3ccccc3c(OC(=O)NCCNCCS(=O)(=O)C(C)C)c2o1.Cl.Cl` [Example 58]: the “% Measurement value” value in data set [1] worked out at 81%; in data set [2], 40%. In addition, the “Solubility in pH 2.0 buffer solution” value in data set [3] was found to be 1.5 mg/mL.

For the compound `CC(=O)c1cc2c(O)c3ccccc3c(OC(=O)NCCNCCS(=O)(=O)N(C)C)c2o1.Cl` [Example 79], the “% Measurement value” value in data set [1] was determined as 71%; in data set [2], 39%. Moreover, the “Solubility in pH 2.0 buffer solution” value in data set [3] stood at 0.3 mg/mL.

(Values after US10800752B2, “Substituted naphtho[2,3-b]furans as water-soluble prodrugs for preventing and/or treating cancer” (BOSTON BIOMEDICAL, INC., priority 2015, dated 2020).)
